Data as given in publication PMC3508294 (Journal of medicinal chemistry, 2012).
Each block holds one molecule with its values, some of them ahead of it.

How the values were obtained:
calf thymus histone H3 = test: SPR binding to immobilized histone H3; conditions: compounds injected at 50–10000 nM
PABP1(437–488) = PABP1(437–488) (Homo sapiens, UniProt P11940); test: SPR binding to immobilized PABP1; conditions: compounds injected at 50–10000 nM
CARM1 = biological target: T1, CARM1 (Mus musculus, UniProt Q9WVG6); test: SPR binding to immobilized full length GST-tagged CARM1; conditions: for Effect on affinity of substrate (H3 or PABP1) for CARM1/SAH complex: 4 µM compound, 200 µM SAH; for Interaction with immobilized CARM1 (in words): 50–10000 nM, in the presence and in absence of SAH
T1 sequence (Q9WVG6 1-608): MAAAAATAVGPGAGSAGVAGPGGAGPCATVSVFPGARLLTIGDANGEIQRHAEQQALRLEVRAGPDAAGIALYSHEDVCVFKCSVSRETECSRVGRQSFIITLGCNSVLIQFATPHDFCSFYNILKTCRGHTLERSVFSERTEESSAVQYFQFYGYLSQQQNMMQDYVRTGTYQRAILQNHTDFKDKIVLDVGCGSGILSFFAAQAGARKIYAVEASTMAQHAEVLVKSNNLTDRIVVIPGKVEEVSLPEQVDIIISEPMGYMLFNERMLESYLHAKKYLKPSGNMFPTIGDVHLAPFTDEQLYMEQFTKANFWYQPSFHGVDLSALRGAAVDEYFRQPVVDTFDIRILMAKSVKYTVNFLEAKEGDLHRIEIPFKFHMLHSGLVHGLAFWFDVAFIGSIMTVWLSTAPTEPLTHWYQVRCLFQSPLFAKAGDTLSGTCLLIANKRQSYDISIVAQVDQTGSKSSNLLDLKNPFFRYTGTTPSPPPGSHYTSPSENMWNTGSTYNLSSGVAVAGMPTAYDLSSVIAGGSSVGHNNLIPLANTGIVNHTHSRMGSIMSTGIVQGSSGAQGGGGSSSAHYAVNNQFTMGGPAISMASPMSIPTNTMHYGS

[1] = tested on: CARM1 (fPABP1 methylation) in HEK293 cells; test: Cellular methylation assay, Tet-inducible fPABP1 in HEK293 cells; assay type: cell-based, human; conditions: HEK293, Tet-induced fPABP1; 50 µM compound; 24 h; anti-methyl-PABP1 immunoblot
CARM1/PRMT4 [2] = biological target: T2, CARM1/PRMT4 (Mus musculus, UniProt Q9WVG6); test: CARM1 in vitro methylation assay, histone H3 as substrate; assay type: biochemical; conditions: 50 µM
T2 sequence (Q9WVG6 1-608): T1 sequence (Q9WVG6 1-608)

CARM1/PRMT4 [3] = biological target: T2, CARM1/PRMT4; test: CARM1 in vitro methylation assay, PABP1 as substrate; assay type: biochemical; conditions: 3, 6, 12, 25, 50 and 100 µM
[4] = biological target: human recombinant PRMT1 (hPRMT1) (Homo sapiens, UniProt Q99873); test: PRMT1 in vitro inhibition assay, Npl3 as substrate; conditions: fixed doses of 10 µM and 50 µM
human recombinant PRMT1 (hPRMT1), sequence (Q99873 whole entry): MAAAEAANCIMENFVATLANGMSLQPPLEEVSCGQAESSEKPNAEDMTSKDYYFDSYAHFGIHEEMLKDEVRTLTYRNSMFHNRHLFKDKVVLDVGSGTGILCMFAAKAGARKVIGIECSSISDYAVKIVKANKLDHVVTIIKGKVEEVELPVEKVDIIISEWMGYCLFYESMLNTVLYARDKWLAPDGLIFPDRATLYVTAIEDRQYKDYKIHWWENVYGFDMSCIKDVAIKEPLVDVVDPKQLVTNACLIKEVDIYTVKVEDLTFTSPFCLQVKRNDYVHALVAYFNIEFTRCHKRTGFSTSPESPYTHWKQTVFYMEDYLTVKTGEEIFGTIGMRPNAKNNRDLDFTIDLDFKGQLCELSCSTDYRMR

[5] = biological target: T3, full length GST-tagged CARM1 (UniProt Q9WVG6 1-608); test: SPR
T3 sequence (looked up): T1 sequence (Q9WVG6 1-608)

Interaction with immobilized PABP1(437–488) (in words) (PABP1(437–488)): no interaction | Effect on affinity of substrate (H3 or PABP1) for CARM1/SAH complex (CARM1): affects the affinity | Interaction with immobilized CARM1 (in words) (CARM1): no interaction
Molecule: CCOC(=O)c1cc2cc(NC(=O)CNC(=O)Nc3ccc(C#N)cc3)ccc2[nH]1 [3g, ethyl 5-(2-(3-(4-cyanophenyl)ureido)acetamido)-1H-indole-2-carboxylate]
Interaction with immobilized histone H3 (in words) (calf thymus histone H3): no interaction | Methylation of fPABP1 in cells [1]: strongly increase the methylation

Interaction with immobilized PABP1(437–488) (in words) (PABP1(437–488)): no interaction | Effect on affinity of substrate (H3 or PABP1) for CARM1/SAH complex (CARM1): significantly affect the affinity | Interaction with immobilized CARM1 (in words) (CARM1): no interaction
Molecule: CCOC(=O)c1cc2cc(NC(=O)CNC(=O)Nc3ccc(C)cc3)ccc2[nH]1 [3c, ethyl 5-(2-(3-(p-tolyl)ureido)acetamido)-1H-indole-2-carboxylate]
Interaction with immobilized histone H3 (in words) (calf thymus histone H3): no interaction | Methylation of fPABP1 in cells [1]: strongly increase the methylation

Interaction with immobilized PABP1(437–488) (in words) (PABP1(437–488)): no interaction | Effect on affinity of substrate (H3 or PABP1) for CARM1/SAH complex (CARM1): significantly affect the affinity | Interaction with immobilized CARM1 (in words) (CARM1): no interaction
Molecule: COC(=O)c1c[nH]c2ccc(NC(=O)CNC(=O)Nc3ccc(OC)cc3)cc12 [4e, methyl 5-(2-(3-(4-methoxyphenyl)ureido)acetamido)-1H-indole-3-carboxylate]
Interaction with immobilized histone H3 (in words) (calf thymus histone H3): no interaction

Effect on CARM1-catalyzed H3 methylation (in words) (CARM1/PRMT4 [2]): marked activation | Effect on CARM1 enzyme activity, dose dependence (CARM1/PRMT4 [3]): marked and dose-dependent increase | Interaction with immobilized PABP1(437–488) (in words) (PABP1(437–488)): no interaction | Effect on affinity of substrate (H3 or PABP1) for CARM1/SAH complex (CARM1): affects the affinity | Interaction with immobilized CARM1 (in words) (CARM1): no interaction | Inhibition of PRMT1 [4]: scarcely active
Molecule: CCOC(=O)c1cc2cc(NC(=O)CNC(=O)Nc3ccc([N+](=O)[O-])cc3)ccc2[nH]1 [1k, ethyl 5-(2-(3-(4-nitrophenyl)ureido)acetamido)-1H-indole-2-carboxylate]
Interaction with immobilized histone H3 (in words) (calf thymus histone H3): no interaction

Interaction with immobilized PABP1(437–488) (in words) (PABP1(437–488)): barely perceptible
Molecule: O=c1oc2c(O)c(O)cc3c(=O)oc4c(O)c(O)cc1c4c23 [ellagic acid, reference compound]

Molecule: O=C(Nc1ccc2c(O)cc(S(=O)(=O)O)cc2c1)Nc1ccc2c(O)cc(S(=O)(=O)O)cc2c1 [AMI-1, reference compound]
Interaction with immobilized PABP1(437–488) (in words) (PABP1(437–488)): barely perceptible

Kd [5]: 158 nM
B1: PABP1(437–488) (domain or fragment, human, UniProt P11940 437-488, looked up)
chain: WTAQGARPHPFQNMPGAIRPAAPRPPFSTMRPASSQVPRVMSTQRVANTSTQ
